From US9199989B2, “N—(imidazolidin-2-ylidene)quinoline derivatives as modulators of alpha 2 adrenergic receptors” (Allergan, Inc., priority 2011, dated 2015)

Target: T1, Alpha 2C adrenergic receptor (Homo sapiens, UniProt P18825)
T1 construct: expressed in transfected cells
T1 sequence (P18825 1-462): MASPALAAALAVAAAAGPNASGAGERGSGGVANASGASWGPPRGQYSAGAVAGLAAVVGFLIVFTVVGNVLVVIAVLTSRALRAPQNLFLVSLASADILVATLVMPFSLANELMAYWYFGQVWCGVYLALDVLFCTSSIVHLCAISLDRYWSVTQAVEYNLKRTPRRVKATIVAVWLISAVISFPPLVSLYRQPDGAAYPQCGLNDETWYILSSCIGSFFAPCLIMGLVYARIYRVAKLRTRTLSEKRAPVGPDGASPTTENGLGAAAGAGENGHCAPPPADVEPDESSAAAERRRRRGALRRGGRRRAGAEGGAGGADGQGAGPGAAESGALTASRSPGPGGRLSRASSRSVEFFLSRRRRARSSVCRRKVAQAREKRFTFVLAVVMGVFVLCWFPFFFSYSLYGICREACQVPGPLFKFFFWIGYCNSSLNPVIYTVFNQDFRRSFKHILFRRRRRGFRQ
Assay: RSAT (Receptor Selection and Amplification Technology) compound screening
Assay type: cell-based
Conditions: for EC50: cells expressing the alpha 2C adrenergic receptor, receptor-mediated growth response, read-out: Intrinsic Activity EC50, Alpha 2C; for Intrinsic Activity (efficacy), Alpha 2C: relative efficacy compared to a standard full agonist
Experimental: Cells expressing each of the alpha 2 adrenergic receptors alone were incubated with the various compounds and a receptor-mediated growth response was measured. The compound's activity was expressed as its relative efficacy compared to a standard full agonist (see Table 2).

Compound	EC50 [nM]	Intrinsic Activity (efficacy), Alpha 2C
c1ccc2c(N=C3NCCN3)ccnc2c1 [Compound 1, N-(imidazolidin-2-ylidene)quinolin-4-amine]	17.4	(0.95)
Clc1c(N=C2NCCN2)cnc2cccnc12 [Compound 2, 4-Chloro-N-(imidazolidin-2-ylidene)-1,5-naphthyridin-3-amine]	21	(0.95)
Cc1c(N=C2NCCN2)cnc2ccccc12 [Compound 3, N-(imidazolidin-2-ylidene)-4-methylquinolin-3-amine]	1650	(0.21)
Clc1c(N=C2NCCN2)cnc2ccccc12 [Compound 4, 4-Chloro-N-(imidazolidin-2-ylidene)quinolin-3-amine]	368	(0.66)
Brc1c(N=C2NCCN2)cnc2ccccc12 [Compound 5, 4-Bromo-N-(imidazolidin-2-ylidene)quinolin-3-amine]	1530	(0.17)
c1cnc2ncc(N=C3NCCN3)cc2n1 [Compound 6, N-(imidazolidin-2-ylidene)pyrido[2,3-b]pyrazin-7-amine]	4580	(0.44)
Cc1c(N=C2NCCN2)cnc2nccnc12 [Compound 7, N-(imidazolidin-2-ylidene)-8-methylpyrido[2,3-b]pyrazin-7-amine]	311	(0.93)
